{"source": "patent US20240352419A1", "about": "“METHODS AND COMPOSITIONS FOR DIFFERENTIATION OF PLURIPOTENT STEM CELLS AND DERIVED HEMATOPOIETIC LINEAGE CELLS” (NUWACELL BIOTECHNOLOGIES CO., LTD., priority 2022, published 2024)", "type_in_all_cases": "cell-based", "key": {"K562 cells": {"system": "K562 cells", "experiment": "Cytotoxicity of Stage 3 iNK cells by CFSE/7AAD assay", "details": "added to Stage 3 medium (IL-10 20 ng/mL, IL-18 50 ng/mL), E:T 3:1, 4 hr, FIG. 13A", "procedure": "hiPSCs were prepared as described in CN108373998B. On Day −1, Embryoid body (EB) formation (Stage 1-1) was carried out by placing individualized hiPSCs in E8 medium containing 10 μM Blebbistatin in T25 flasks on a bellydancer and culture overnight. On Day 0, lateral mesoderm differentiation (Stage 1-2) was initiated by changing the medium to a Stage 1-2 differentiation medium comprising IF-4 basal medium and supplemented with BMP4 (25 ng/mL), VEGF (15 ng/ml), bFGF (0.5 ng/mL) and CHIR99021 (4 μM) for 2 days. On Day 2, lateral mesoderm differentiation (Stage 1-3) continued for 1 day in a Stage 1-3 differentiation medium comprising IF-4 basal medium and supplemented with BMP4 (25 ng/mL), VEGF (50 ng/mL) and bFGF (0.5 ng/mL) and CHIR99021 (1 μM). On Day 3, HE specification (Stage 1-4) was initiated by adding a Stage 1-4 differentiation medium comprising IF-4 basal medium and supplemented with VEGF (15 ng/ml), bFGF (5 ng/ml), XAV939 (5 μM) for 1 day. […] On Day 11 of co-culture, iNK cells were collected and stained with CD56-PE antibody (BD, #555516), the percentage of CD56+ cells was analyzed by flow cytometry. The cytotoxicity of Stage 3 iNK cells towards K562 cells was detected by CFSE/7AAD assay after 4 hr co-culture at E:T of 3:1."}, "PBNK cells": {"system": "PBNK cells", "experiment": "Expansion of PBNK cells from PBMCs (expansion fold, CD56+CD3- percentage by flow cytometry)", "details": "effect of heparin sodium concentration (0-50 μg/mL) in NKSFM", "procedure": "The effect of the concentration of nicotinamide (NAM) in an exemplary basal medium on NK cell expansion was evaluated. The above basal medium comprised the following components: IMDM (Sigma):RPMI1640 (Gibco) (50%: 50%); about 1.3 ng/ml of Cupric sulfate, about 3 μM of Ferric sulfate, about 0.432 μg/mL of Zinc sulfate, about 1˜50 ng/ml of Na Selenite, about 110 μg/mL of Sodium pyruvate, 0.1˜20 μg/mL of Insulin, 1˜200 μg/mL of Transferrin, about 1% (v/v) of GlutaMAX-1, 0.1˜20 mg/mL of HSA, 1˜400 μM of MTG, about 80 μg/mL of Ascorbic acid and indicated concentration of NAM. Peripheral blood mononuclear cells (PBMCs) were isolated by density gradient centrifugation using Ficoll-Paque. On Day 0, PBMCs were plated at 1×10^6 cells/mL in a 48-well-plate in the basal medium with NAM (either 0, 1, 2, 2.5, 3, 3.5, 4, or 5 mM) and stimulated with the following reagents for 3 days: immobilized CD16 antibody (Biolegend, 302014) (135 ng/cm^2), IL-2 (700 IU/mL), IL-15 (10 ng/ml) and OK432 (0.01 KE/mL). On day 3, cells were re-suspended in the above basal medium supplemented with IL-2 (700 IU/mL) and IL-15 (10 ng/mL). Fresh medium was added every other day to maintain cell density below 2×10^6 cells/mL. Cells were collect on Day 14 and stained with CD56-PE and CD3-PerCP-Cy5.5 antibodies, the percentage of CD56^+CD3^− NK cells was analyzed by flow cytometry.\n(§1) The effect of heparin sodium concentration in an exemplary NKSFM on NK cell expansion was also evaluated. NKSFM comprised the following components: IMDM (Sigma):DMEM/F12 (Gibco) (50%: 50%); about 20 μM of Ethanolamine, about 1˜50 ng/ml of Na Selenite, about 110 μg/mL of Sodium pyruvate, 0.1˜20 μg/mL of Insulin, 1˜200 μg/mL of Transferrin, about 1% (v/v) of GlutaMAX-1, 0.1˜20 mg/mL of Human serum albumin, 1˜400 μM of MTG, about 80 μg/mL of Ascorbic acid, about 1˜5 mM of NAM, 4% (v/v) of PLT, and indicated concentration of heparin sodium. PBMCs were isolated by density gradient centrifugation using Ficoll-Paque. On Day 0, PBMCs were plated at 1×10^6 cells/mL in a 48-well-plate in NKSFM with heparin sodium (0, 0.5, 1, 3, 10, 30, or 50 μg/mL) and stimulated with the following reagents for 3 days: immobilized CD16 antibody (Biolegend, 302014) (135 ng/cm^2), OK432 (0.01 KE/mL), NeoIL-2 (50 ng/ml), IL-12 (10 ng/mL), IL-18 (50 ng/mL). […] Cells were collect on Day 13 and stained with CD56-PE and CD3-PerCP-Cy5.5 antibodies, the percentage of CD56^+CD3^− NK cells was analyzed by flow cytometry. The specific lysis of K562 tumor cells by NK cells were assessed by CFSE/7-AAD cytotoxicity assay. […] After incubation for 4 hours, cells were stained with 7-AAD (Live/dead staining) and analyzed with flow cytometry.\nThe effect of PLT percentage (v/v) in an exemplary NKSFM on NK cell expansion was evaluated. […]"}, "K562 tumor cells": {"system": "K562 tumor cells", "experiment": "CFSE/7-AAD cytotoxicity assay of expanded NK cells", "details": "effect of heparin sodium concentration in NKSFM, E:T 3:1, 4 hours, FIG. 3C", "procedure": "as §1, with “Ficoll-Paque.” for “Ficoll-Paque. On Day 0, PBMCs were plated at 1×10^6 cells/mL in a 48-well-plate in NKSFM with heparin sodium (0, 0.5, 1, 3, 10, 30, or 50 μg/mL) and stimulated with the following reagents for 3 days: immobilized CD16 antibody (Biolegend, 302014) (135 ng/cm^2), OK432 (0.01 KE/mL), NeoIL-2 (50 ng/ml), IL-12 (10 ng/mL), IL-18 (50 ng/mL).”\nThe effect of PLT percentage (v/v) in an exemplary NKSFM on NK cell expansion was evaluated. […] Cells were collect on Day 14 and stained with CD56-PE and CD3-PerCP-Cy5.5 antibodies, the percentage of CD56^+CD3^− NK cells was analyzed by flow cytometry. The specific lysis of K562 tumor cells by NK cells were assessed by CFSE/7-AAD cytotoxicity assay. […]"}}}
{"substance": "IL-10: interleukin added to Stage 3 expansion and maturation medium", "values": [{"measurement": "cytotoxicity of iNK cells", "setting": "K562 cells", "result": "significantly improve"}]}
{"substance": "heparin sodium", "values": [{"measurement": "NK cell expansion fold", "setting": "PBNK cells; Day 13, FIG. 3A", "result": "significantly influences"}, {"measurement": "percentage of CD56+CD3− NK cells", "setting": "PBNK cells; Day 13, FIG. 3B", "result": "minimal effect"}, {"measurement": "specific lysis of K562 tumor cells", "setting": "K562 tumor cells", "result": "minimal effect"}]}
